Measured values from ChEMBL document CHEMBL1133889, “Discovery and SAR of org 24598-a selective glycine uptake inhibitor” (Bioorg Med Chem Lett, 2001).
pIC50, pKi: −log10 of the molar value.

How the values were obtained:
[1] = biological target: T1, Sodium- and chloride-dependent glycine transporter 1 (Homo sapiens, UniProt P48067); assay: Inhibition of [3H]glycine uptake using CHO cells transfected with GlyT-1b transporter; type: cell-based
T1 sequence (P48067 whole entry): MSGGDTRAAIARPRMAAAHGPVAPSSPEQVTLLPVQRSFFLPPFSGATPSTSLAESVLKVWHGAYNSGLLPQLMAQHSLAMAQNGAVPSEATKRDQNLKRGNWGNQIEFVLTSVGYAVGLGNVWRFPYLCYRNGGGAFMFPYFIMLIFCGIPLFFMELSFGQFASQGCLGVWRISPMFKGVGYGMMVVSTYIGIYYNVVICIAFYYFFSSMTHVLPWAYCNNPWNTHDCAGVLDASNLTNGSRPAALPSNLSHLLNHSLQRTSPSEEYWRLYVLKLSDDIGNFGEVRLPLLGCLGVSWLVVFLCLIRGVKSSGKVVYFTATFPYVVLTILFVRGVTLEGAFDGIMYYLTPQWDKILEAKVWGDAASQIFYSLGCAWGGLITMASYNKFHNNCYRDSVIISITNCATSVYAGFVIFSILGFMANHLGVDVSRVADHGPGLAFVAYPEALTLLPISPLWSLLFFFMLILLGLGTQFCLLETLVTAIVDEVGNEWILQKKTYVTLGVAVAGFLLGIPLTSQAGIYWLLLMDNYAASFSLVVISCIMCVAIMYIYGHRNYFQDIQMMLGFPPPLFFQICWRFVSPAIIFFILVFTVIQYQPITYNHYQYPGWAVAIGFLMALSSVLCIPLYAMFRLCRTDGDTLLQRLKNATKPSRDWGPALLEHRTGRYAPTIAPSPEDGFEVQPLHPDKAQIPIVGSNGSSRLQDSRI

[2] = biological target: T2, 5-hydroxytryptamine receptor 1A (Rattus norvegicus, UniProt P19327); assay: Binding affinity of compound towards 5-hydroxytryptamine 1A receptor was determined
T2 sequence (P19327 whole entry): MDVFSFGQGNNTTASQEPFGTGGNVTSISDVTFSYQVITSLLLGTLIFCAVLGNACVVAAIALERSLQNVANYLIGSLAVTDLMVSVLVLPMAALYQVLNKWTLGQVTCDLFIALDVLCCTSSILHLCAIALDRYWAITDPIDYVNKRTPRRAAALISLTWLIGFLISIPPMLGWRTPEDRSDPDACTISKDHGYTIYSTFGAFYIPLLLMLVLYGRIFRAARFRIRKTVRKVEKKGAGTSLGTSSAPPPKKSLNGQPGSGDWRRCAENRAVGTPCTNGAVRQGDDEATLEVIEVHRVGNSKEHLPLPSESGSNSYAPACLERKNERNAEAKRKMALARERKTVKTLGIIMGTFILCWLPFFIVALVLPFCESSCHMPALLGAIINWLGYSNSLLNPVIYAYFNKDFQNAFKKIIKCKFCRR

[3] = biological target: T3, 5-hydroxytryptamine receptor 2C (Rattus norvegicus, UniProt P08909); assay: Binding affinity of compound towards serotonin 5-hydroxytryptamine 2C receptor was determined
T3 sequence (P08909 whole entry): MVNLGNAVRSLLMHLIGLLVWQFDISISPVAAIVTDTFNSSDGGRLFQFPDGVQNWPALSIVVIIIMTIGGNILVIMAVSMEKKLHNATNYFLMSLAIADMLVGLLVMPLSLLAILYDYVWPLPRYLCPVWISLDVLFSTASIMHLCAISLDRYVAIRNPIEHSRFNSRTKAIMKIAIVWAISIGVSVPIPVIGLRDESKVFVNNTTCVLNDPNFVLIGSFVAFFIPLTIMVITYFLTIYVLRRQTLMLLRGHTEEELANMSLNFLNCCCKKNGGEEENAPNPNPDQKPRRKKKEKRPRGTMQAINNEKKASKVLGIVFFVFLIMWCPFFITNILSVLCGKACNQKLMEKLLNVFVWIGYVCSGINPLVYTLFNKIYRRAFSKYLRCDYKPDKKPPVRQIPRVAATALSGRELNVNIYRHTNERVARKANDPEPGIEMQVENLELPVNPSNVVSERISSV

[4] = biological target: 5-hydroxytryptamine receptor 2A (Rattus norvegicus, UniProt P14842); assay: Binding affinity of compound towards serotonin 5-hydroxytryptamine 2A receptor was determined
5-hydroxytryptamine receptor 2A, sequence (P14842 whole entry): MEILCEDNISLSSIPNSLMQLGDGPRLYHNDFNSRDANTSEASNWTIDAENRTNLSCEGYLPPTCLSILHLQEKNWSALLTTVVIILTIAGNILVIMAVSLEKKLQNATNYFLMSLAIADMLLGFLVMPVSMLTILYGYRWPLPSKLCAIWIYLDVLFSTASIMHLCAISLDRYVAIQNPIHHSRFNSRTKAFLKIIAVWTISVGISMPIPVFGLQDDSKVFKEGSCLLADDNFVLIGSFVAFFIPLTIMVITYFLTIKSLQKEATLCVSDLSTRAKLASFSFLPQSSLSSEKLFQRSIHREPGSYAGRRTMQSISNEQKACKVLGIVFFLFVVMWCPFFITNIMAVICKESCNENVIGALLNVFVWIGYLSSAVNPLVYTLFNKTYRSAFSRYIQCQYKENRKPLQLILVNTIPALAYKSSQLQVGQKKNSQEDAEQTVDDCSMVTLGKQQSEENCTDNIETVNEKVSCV

[5] = biological target: 5-hydroxytryptamine receptor 7 (Rattus norvegicus, UniProt P32305); assay: Binding affinity of compound towards serotonin 5-hydroxytryptamine 7 receptor was determined
5-hydroxytryptamine receptor 7, sequence (P32305 whole entry): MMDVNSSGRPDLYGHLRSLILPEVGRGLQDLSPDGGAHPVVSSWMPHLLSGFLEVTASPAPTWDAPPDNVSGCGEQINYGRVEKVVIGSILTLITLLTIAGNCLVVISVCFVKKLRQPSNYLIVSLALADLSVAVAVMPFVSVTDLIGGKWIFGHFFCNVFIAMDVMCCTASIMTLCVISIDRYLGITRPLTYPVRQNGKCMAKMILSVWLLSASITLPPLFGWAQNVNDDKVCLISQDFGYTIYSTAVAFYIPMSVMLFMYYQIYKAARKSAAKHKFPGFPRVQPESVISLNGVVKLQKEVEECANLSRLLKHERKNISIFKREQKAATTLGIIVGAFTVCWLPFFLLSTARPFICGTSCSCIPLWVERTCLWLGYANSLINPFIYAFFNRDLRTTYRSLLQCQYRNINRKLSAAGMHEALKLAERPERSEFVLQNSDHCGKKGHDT

[6] = biological target: 5-hydroxytryptamine receptor 6 (Rattus norvegicus, UniProt P31388); assay: Binding affinity of compound towards serotonin 5-hydroxytryptamine 6 receptor was determined
5-hydroxytryptamine receptor 6, sequence (P31388 whole entry): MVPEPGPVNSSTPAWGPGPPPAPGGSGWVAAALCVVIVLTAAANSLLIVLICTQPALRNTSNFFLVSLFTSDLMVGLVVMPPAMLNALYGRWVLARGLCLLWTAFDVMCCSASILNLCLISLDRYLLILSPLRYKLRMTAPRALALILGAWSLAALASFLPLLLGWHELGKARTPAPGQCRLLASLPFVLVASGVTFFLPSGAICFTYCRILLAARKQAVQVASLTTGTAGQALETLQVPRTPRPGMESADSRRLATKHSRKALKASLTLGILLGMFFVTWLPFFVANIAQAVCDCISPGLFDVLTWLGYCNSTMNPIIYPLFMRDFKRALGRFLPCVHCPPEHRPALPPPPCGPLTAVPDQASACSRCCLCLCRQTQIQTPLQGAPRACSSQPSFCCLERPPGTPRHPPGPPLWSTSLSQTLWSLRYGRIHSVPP

[7] = biological target: T4, Alpha-2C adrenergic receptor (Homo sapiens, UniProt P18825); assay: Binding affinity of compound towards Alpha-2C adrenergic receptor was determined
T4 sequence (P18825 whole entry): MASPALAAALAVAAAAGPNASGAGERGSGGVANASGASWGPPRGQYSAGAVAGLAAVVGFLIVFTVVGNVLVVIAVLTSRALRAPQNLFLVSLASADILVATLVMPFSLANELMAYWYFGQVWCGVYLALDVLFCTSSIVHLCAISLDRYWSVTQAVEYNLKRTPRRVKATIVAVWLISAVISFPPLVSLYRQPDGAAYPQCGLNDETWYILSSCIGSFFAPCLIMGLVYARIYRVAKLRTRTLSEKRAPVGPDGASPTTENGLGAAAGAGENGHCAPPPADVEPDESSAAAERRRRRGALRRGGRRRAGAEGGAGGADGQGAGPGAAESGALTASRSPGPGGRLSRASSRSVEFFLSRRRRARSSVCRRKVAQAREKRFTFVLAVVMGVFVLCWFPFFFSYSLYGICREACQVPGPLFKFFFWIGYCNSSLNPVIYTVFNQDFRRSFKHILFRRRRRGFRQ

[8] = biological target: T5, Alpha-1A adrenergic receptor (Homo sapiens, UniProt P35348); assay: Binding affinity of compound towards Binding affinity towards Alpha-1A adrenergic receptor was determined
T5 sequence (P35348 whole entry): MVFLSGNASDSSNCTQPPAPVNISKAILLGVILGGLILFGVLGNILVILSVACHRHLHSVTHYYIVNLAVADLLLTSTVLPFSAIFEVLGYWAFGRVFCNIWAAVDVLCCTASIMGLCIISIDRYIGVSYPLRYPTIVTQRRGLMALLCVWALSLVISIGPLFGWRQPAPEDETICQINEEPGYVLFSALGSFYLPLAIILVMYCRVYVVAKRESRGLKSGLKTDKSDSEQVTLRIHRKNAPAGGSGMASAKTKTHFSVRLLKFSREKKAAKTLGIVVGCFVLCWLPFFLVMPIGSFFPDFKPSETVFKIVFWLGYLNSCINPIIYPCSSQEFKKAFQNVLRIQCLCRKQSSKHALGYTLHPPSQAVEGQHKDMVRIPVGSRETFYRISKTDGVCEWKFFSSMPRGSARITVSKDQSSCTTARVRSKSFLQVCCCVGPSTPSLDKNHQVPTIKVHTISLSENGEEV

[9] = biological target: Beta-2 adrenergic receptor (Homo sapiens, UniProt P07550); assay: Binding affinity of compound towards Beta-2 adrenergic receptor was determined
Beta-2 adrenergic receptor, sequence (P07550 whole entry): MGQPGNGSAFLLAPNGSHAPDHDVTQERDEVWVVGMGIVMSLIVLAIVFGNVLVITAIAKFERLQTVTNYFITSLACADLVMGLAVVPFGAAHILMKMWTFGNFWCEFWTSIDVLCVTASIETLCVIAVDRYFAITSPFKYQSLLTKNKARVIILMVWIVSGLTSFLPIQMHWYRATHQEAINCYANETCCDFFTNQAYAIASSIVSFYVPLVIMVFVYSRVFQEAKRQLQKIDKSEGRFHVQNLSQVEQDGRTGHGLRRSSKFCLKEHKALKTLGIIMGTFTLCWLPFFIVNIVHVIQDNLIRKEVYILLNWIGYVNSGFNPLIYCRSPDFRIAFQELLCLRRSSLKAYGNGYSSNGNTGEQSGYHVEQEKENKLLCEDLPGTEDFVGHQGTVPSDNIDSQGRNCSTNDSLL

[10] = biological target: T6, D(4) dopamine receptor (Rattus norvegicus, UniProt P30729); assay: Binding affinity of compound towards Dopamine receptor D4 was determined
T6 sequence (P30729 whole entry): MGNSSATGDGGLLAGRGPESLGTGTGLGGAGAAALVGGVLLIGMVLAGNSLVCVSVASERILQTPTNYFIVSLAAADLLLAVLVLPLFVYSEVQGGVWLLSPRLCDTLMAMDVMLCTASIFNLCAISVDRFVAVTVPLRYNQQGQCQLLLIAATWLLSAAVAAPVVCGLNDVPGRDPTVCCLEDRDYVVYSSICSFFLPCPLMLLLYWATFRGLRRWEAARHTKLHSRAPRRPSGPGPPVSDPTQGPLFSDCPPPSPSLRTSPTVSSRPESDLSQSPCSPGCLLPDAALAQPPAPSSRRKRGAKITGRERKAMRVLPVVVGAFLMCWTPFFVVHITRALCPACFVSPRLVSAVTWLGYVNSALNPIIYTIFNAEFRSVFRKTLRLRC

[11] = biological target: Glutamate NMDA receptor; assay: Binding affinity to NMDA glycine co-agonist site with [3H]-MDL- 105,519 as radioligand in rat brain membrane; type: cell membranes
[12] = species: Rattus norvegicus; assay: Inhibition of [3H]- dopamine uptake in rat brain; type: functional, organism-based
[13] = species: Rattus norvegicus; assay: Inhibition of [3H]- noradrenaline uptake in rat brain; type: functional, organism-based
[14] = species: Rattus norvegicus; assay: Inhibition of [3H]- serotonin uptake in rat brain; type: functional, organism-based
[15] = biological target: Beta-1 adrenergic receptor (Homo sapiens, UniProt P08588); assay: Binding affinity of compound towards Beta-1 adrenergic receptor was determined
Beta-1 adrenergic receptor, sequence (P08588 whole entry): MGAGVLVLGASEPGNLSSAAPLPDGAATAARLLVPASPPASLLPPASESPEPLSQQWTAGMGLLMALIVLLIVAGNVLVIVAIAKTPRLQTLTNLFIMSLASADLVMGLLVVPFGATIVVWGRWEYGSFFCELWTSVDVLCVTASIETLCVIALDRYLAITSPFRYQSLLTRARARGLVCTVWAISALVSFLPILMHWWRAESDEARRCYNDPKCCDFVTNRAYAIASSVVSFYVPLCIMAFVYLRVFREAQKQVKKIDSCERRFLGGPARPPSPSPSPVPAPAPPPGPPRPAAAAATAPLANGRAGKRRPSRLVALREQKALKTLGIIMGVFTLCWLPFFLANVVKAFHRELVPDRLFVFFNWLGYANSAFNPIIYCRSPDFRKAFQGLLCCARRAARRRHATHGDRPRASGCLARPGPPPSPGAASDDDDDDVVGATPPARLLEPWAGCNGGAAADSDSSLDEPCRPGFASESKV

[16] = biological target: D(2) dopamine receptor (Rattus norvegicus, UniProt P61169); assay: Binding affinity of compound towards Dopamine receptor D2S was determined
D(2) dopamine receptor, sequence (P61169 whole entry): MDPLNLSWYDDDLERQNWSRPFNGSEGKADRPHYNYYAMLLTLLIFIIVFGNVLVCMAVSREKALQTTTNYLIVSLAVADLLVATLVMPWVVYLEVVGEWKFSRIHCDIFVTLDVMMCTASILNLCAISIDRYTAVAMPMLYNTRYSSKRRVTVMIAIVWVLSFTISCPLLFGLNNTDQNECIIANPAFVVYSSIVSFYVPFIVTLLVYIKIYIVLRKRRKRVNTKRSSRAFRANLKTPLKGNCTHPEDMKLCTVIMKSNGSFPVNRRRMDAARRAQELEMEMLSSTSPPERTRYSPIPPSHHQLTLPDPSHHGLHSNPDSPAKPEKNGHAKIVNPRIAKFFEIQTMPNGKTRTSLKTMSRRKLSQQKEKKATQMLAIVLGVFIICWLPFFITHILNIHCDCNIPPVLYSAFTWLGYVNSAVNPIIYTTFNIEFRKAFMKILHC

[17] = biological target: T7, Alpha-1B adrenergic receptor (Homo sapiens, UniProt P35368); assay: The compound was tested for the binding affinity towards Alpha-1B adrenergic receptor
T7 sequence (P35368 whole entry): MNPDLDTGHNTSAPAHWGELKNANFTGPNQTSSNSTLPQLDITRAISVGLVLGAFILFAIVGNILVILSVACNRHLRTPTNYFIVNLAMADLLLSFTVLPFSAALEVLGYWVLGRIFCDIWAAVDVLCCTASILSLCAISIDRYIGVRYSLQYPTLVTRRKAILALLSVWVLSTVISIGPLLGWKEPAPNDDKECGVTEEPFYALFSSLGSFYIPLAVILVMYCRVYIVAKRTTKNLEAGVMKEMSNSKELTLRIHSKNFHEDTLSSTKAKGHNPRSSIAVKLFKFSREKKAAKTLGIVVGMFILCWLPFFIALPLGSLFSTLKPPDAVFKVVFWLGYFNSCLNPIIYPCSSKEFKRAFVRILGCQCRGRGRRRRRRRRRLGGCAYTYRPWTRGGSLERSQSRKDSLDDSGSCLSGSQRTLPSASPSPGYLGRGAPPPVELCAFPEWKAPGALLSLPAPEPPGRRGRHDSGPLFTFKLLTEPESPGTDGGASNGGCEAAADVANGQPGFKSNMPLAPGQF

[18] = species: Rattus norvegicus; assay: Inhibition of [3H]- GABA uptake in rat brain; type: functional, organism-based

Row | SMILES | pIC50 [1] | further results
1 | CN(CCC(Oc1cccc(C(F)(F)F)c1)c1ccccc1)CC(=O)O (stereo not given) | 5.60 | –
2 | CCN(CCC(Oc1ccc(C(F)(F)F)cc1)c1ccccc1)CC(=O)O (stereo not given) | 5.30 | –
3 | CN(CCCC(=O)O)CCC(Oc1ccc(C(F)(F)F)cc1)c1ccccc1 (stereo not given) | 4.00 | –
4 | CN(CC[C@H](Oc1ccc(C(F)(F)F)cc1)c1ccccc1)CC(=O)O | 5.58 | –
5 | CN(CC[C@H](Oc1ccc(C(C)(C)C)cc1)c1ccccc1)CC(=O)O | 4.93 | –
6 | CN(CCC(Oc1ccc(Cl)c(Cl)c1)c1ccccc1)CC(=O)O (stereo not given) | 6.30 | –
7 | COc1ccccc1OC(CCN(C)CC(=O)O)c1ccccc1 (stereo not given) | 4.70 | –
8 | CN(CCC(=O)O)CCC(Oc1ccc(C(F)(F)F)cc1)c1ccccc1 (stereo not given) | 4.50 | –
9 | Cc1ccc(OC(CCN(C)CC(=O)O)c2ccccc2)cc1 (stereo not given) | 5.60 | –
10 | CN(CCC(Oc1ccc(S(C)(=O)=O)cc1)c1ccccc1)CC(=O)O (stereo not given) | 4.00 | –
11 | CN(CCC(Oc1ccc(C(F)(F)F)cc1)c1ccc(Cl)cc1)CC(=O)O (stereo not given) | 7.00 | –
12 | CN(CC[C@@H](Oc1ccc(C(C)(C)C)cc1)c1ccccc1)CC(=O)O | 6.35 | –
13 | CN(CCC(Oc1ccc(C(F)(F)F)cc1)c1ccc(F)cc1)CC(=O)O (stereo not given) | 6.60 | –
14 | CN(CC[C@@H](Oc1ccc(-c2ccccc2)cc1)c1ccccc1)CC(=O)O | 6.82 | –
15 | CN(CC[C@H](Oc1ccc(-c2ccccc2)cc1)c1ccccc1)CC(=O)O | 6.01 | –
16 | CN(CCC(Oc1ccccc1Cl)c1ccccc1)CC(=O)O (stereo not given) | 4.90 | –
17 | CN(CCC(Oc1ccc(C(F)(F)F)cc1)c1ccccc1)CC(=O)O (stereo not given) | 6.50 | –
18 | CN(CC[C@@H](Oc1ccc(C(F)(F)F)cc1)c1ccccc1)CC(=O)[O-].[Li+] | 6.90 | pKi [2]: < 5.00; pKi [3]: < 5.00; pKi [4]: < 5.00; pKi [5]: < 5.00; pKi [6]: < 5.00; pKi [7]: < 5.00; pKi [8]: < 5.00; pKi [9]: < 5.00; pKi [10]: < 5.00; Log Ki [11]: > -4; pIC50 [12]: < 4.00; pIC50 [13]: < 4.00; pIC50 [14]: 4.30; pKi [15]: < 5.00; pKi [16]: < 5.00; pKi [17]: < 5.00; pIC50 [18]: < 4.00
19 | COc1ccc(C(CCN(C)CC(=O)O)Oc2ccc(C(F)(F)F)cc2)cc1 (stereo not given) | 6.30 | –
20 | CN(CCC(Oc1ccc(Cl)c(C(F)(F)F)c1)c1ccccc1)CC(=O)O (stereo not given) | 6.40 | –
21 | CN(CCC(Cc1ccc(C(F)(F)F)cc1)c1ccccc1)CC(=O)O (stereo not given) | 6.00 | –
22 | CN(CCC(Oc1ccc(Cl)cc1)c1ccccc1)CC(=O)O (stereo not given) | 5.90 | –
23 | COc1ccc(OC(CCN(C)CC(=O)O)c2ccccc2)cc1 (stereo not given) | 5.40 | –
